ChEMBL document CHEMBL1201862, “PubChem BioAssay data set” (2004)
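1) Cells in 96-well plates. 2) Compound, 48 h, 5 concentrations. 3) Linear interpolation between surrounding doses. 4) Unreached endpoint = highest concentration. Here, GI50 denotes the concentration required for 50% inhibition of growth.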 Active and inactive are the calls of the source. Cut-off read from the data, not from the text of the source: active = GI50 up to about 1.1 µM and inactive = higher.

Tests used:
Test in all cases: growth of human tumour cells (NCI), 48 h
786-0 = test system: 786-0
A549 = test system: A549
ACHN = test system: ACHN
CAKI-1 = test system: CAKI-1
CCRF-CEM = test system: CCRF-CEM
COLO 205 = test system: COLO 205
DU-145 = test system: DU-145
EKVX = test system: EKVX
HCC 2998 = test system: HCC 2998
HCT-116 = test system: HCT-116
HCT-15 = test system: HCT-15
HL-60 = test system: HL-60
HOP-62 = test system: HOP-62
HOP-92 = test system: HOP-92
HT-29 = test system: HT-29
Hs-578T = test system: Hs-578T
IGROV-1 = test system: IGROV-1
K562 = test system: K562
KM12 = test system: KM12
LOX IMVI = test system: LOX IMVI
M14 = test system: M14
MCF7 = test system: MCF7
MDA-MB-231 = test system: MDA-MB-231
MDA-N = test system: MDA-N
MOLT-4 = test system: MOLT-4
Malme-3M = test system: Malme-3M
NCI-H23 = test system: NCI-H23
NCI-H460 = test system: NCI-H460
NCI-H522 = test system: NCI-H522
NCI/ADR-RES = test system: NCI/ADR-RES
OVCAR-3 = test system: OVCAR-3
OVCAR-4 = test system: OVCAR-4
OVCAR-5 = test system: OVCAR-5
OVCAR-8 = test system: OVCAR-8
PC-3 = test system: PC-3
RPMI-8226 = test system: RPMI-8226
SF-268 = test system: SF-268
SF-295 = test system: SF-295
SK-MEL-28 = test system: SK-MEL-28
SK-MEL-2 = test system: SK-MEL-2
SK-MEL-5 = test system: SK-MEL-5
SK-OV-3 = test system: SK-OV-3
SN12C = test system: SN12C
SNB-19 = test system: SNB-19
SR = test system: SR
SW-620 = test system: SW-620
T47D = test system: T47D
TK-10 = test system: TK-10
U-251 = test system: U-251
UACC-257 = test system: UACC-257
UACC-62 = test system: UACC-62
UO-31 = test system: UO-31

CCCCC[C@H]1CCCCCCCCCC(=O)OC2C(O[C@@H]3OC(C)[C@H](OC(=O)[C@@H](C)CC)C(O[C@@H]4OC(C)[C@H](O)C(O)[C@@H]4O)[C@@H]3OC(=O)[C@H](C)CC)[C@H](OC3C(O)[C@@H](O)C(C)O[C@H]3O1)OC(CO)[C@H]2O (some centres not stated)
GI50 (786-0): 17.4 µM (inactive) | GI50 (A549): 16.8 µM (inactive) | GI50 (ACHN): > 10 µM (inactive) | GI50 (CAKI-1): 17.3 µM (inactive) | GI50 (CCRF-CEM): 18.6 µM (inactive) | GI50 (COLO 205): 11.9 µM (inactive) | GI50 (DU-145): 16.2 µM (inactive) | GI50 (EKVX): 19.2 µM (inactive) | GI50 (HCC 2998): 17.2 µM (inactive) | GI50 (HCT-116): 16.1 µM (inactive) | GI50 (HCT-15): 16.7 µM | GI50 (HL-60): 19 µM (inactive) | GI50 (HOP-62): 18.2 µM (inactive) | GI50 (HOP-92): 22.3 µM (inactive) | GI50 (HT-29): 16.7 µM (inactive) | GI50 (Hs-578T): 16.4 µM (inactive) | GI50 (IGROV-1): 17.1 µM (inactive) | GI50 (K562): 18.8 µM (inactive) | GI50 (KM12): 20 µM (inactive) | GI50 (LOX IMVI): 17 µM (inactive) | GI50 (M14): 18.2 µM (inactive) | GI50 (MCF7): 17.3 µM (inactive) | GI50 (MDA-MB-231): 16.8 µM (inactive) | GI50 (MDA-N): 17.4 µM (inactive) | GI50 (MOLT-4): 15.6 µM (inactive) | GI50 (Malme-3M): 15.3 µM (inactive) | GI50 (NCI-H23): 17.9 µM (inactive) | GI50 (NCI-H460): 18.2 µM (inactive) | GI50 (NCI-H522): 17.7 µM (inactive) | GI50 (NCI/ADR-RES): 18.8 µM (inactive) | GI50 (OVCAR-3): 17.9 µM (inactive) | GI50 (OVCAR-4): 19.2 µM (inactive) | GI50 (OVCAR-5): 16.7 µM (inactive) | GI50 (OVCAR-8): 19.3 µM (inactive) | GI50 (PC-3): 16.2 µM (inactive) | GI50 (RPMI-8226): 16.8 µM (inactive) | GI50 (SF-268): 16.3 µM (inactive) | GI50 (SF-295): 18 µM (inactive) | GI50 (SK-MEL-28): 16.1 µM (inactive) | GI50 (SK-MEL-2): 16.4 µM (inactive) | GI50 (SK-MEL-5): 17.1 µM (inactive) | GI50 (SK-OV-3): 15.6 µM (inactive) | GI50 (SN12C): 17.5 µM (inactive) | GI50 (SNB-19): 16.1 µM (inactive) | GI50 (SR): 16.7 µM (inactive) | GI50 (SW-620): 16.5 µM (inactive) | GI50 (T47D): 17 µM (inactive) | GI50 (TK-10): 20.1 µM (inactive) | GI50 (U-251): 17.9 µM (inactive) | GI50 (UACC-257): 15.8 µM (inactive) | GI50 (UACC-62): 16.9 µM (inactive) | GI50 (UO-31): 16.1 µM (inactive)
